Experimental data reported in patent US7214675B2, “Urea substituted imidazoquinoline ethers” (3M Innovative Properties Company, priority 2000, dated 2007).

Tests used:
[1] = system: interferon (α) induction in human peripheral blood mononuclear cells (PBMC); assay: Cytokine induction in human cells: interferon (α) secreted by PBMC, ELISA; assay type: cell-based; parameters: key to Lowest Effective Concentration (μM) Interferon: A “*” indicates that no induction was seen at any of the tested concentrations; generally the highest concentration tested was 10 or 30 μM; details: lowest concentration found to induce interferon, incubated 18 to 24 hours at 37° C.
Source text: (§1) An in vitro human blood cell system is used to assess cytokine induction. Activity is based on the measurement of interferon and tumor necrosis factor (α) (IFN and TNF, respectively) secreted into culture media as described by Testerman et. al. In “Cytokine Induction by the Immunomodulators Imiquimod and S-27609”, Journal of Leukocyte Biology, 58, 365–372 (September, 1995).
(§2) Whole blood from healthy human donors is collected by venipuncture into EDTA vacutainer tubes. Peripheral blood mononuclear cells (PBMC) are separated from whole blood by density gradient centrifugation using Histopaque®-1077. Blood is diluted 1:1 with Dulbecco's Phosphate Buffered Saline (DPBS) or Hank's Balanced Salts Solution (HBSS). The PBMC layer is collected and washed twice with DPBS or HBSS and resuspended at 4×10^6 cells/mL in RPMI complete. The PBMC suspension is added to 48 well flat bottom sterile tissue culture plates (Costar, Cambridge, Mass. or Becton Dickinson Labware, Lincoln Park, N.J.) containing an equal volume of RPMI complete media containing test compound.
(§3) The compounds are solubilized in dimethyl sulfoxide (DMSO). The DMSO concentration should not exceed a final concentration of 1% for addition to the culture wells. The compounds are generally tested at concentrations ranging from 30–0.014 μM.
(§4) The solution of test compound is added at 60 μM to the first well containing RPMI complete and serial 3 fold dilutions are made in the wells. The PBMC suspension is then added to the wells in an equal volume, bringing the test compound concentrations to the desired range (30–0.014 μM). The final concentration of PBMC suspension is 2×10^6 cells/mL. The plates are covered with sterile plastic lids, mixed gently and then incubated for 18 to 24 hours at 37° C. in a 5% carbon dioxide atmosphere.
(§5) Following incubation the plates are centrifuged for 10 minutes at 1000 rpm (˜200×g) at 4° C. The cell-free culture supernatant is removed with a sterile polypropylene pipet and transferred to sterile polypropylene tubes. Samples are maintained at −30 to −70° C. until analysis. The samples are analyzed for interferon (α) by ELISA and for tumor necrosis factor (α) by ELISA or IGEN Assay
Interferon (α) concentration is determined by ELISA using a Human Multi-Species kit from PBL Biomedical Laboratories, New Brunswick, N.J. Results are expressed in pg/mL.
(§6) The table below lists the lowest concentration found to induce interferon and the lowest concentration found to induce tumor necrosis factor for each compound.

[2] = system: tumor necrosis factor (α) induction in human peripheral blood mononuclear cells (PBMC); assay: Cytokine induction in human cells: tumor necrosis factor (α) secreted by PBMC, ELISA or IGEN assay; assay type: cell-based; parameters: key to Lowest Effective Concentration (μM) Tumor Necrosis Factor: A “*” indicates that no induction was seen at any of the tested concentrations; generally the highest concentration tested was 10 or 30 μM; details: lowest concentration found to induce tumor necrosis factor, incubated 18 to 24 hours at 37° C.
Source text: as §1, §2, §3, §4, §5
Tumor necrosis factor (α) (TNF) concentration is determined using ELISA kits available from Biosource International, Camarillo, Calif. Alternately, the TNF concentration can be determined by Origen® M-Series Immunoassay and read on an IGEN M-8 analyzer from IGEN International, Gaithersburg, Md. The immunoassay uses a human TNF capture and detection antibody pair from Biosource International, Camarillo, Calif. Results are expressed in pg/mL.
as §6

melting point [°C]	Structure (SMILES)	minimal effective concentration [1] [µM]	minimal effective concentration [2] [µM]	Lowest Effective Concentration (μM) Tumor Necrosis Factor [2]	Lowest Effective Concentration (μM) Interferon [1]
–	CCC(COCCC1CCN(C(=O)Nc2cccc(C(C)=O)c2)CC1)n1cnc2c(N)nc3ccccc3c21 (centres unmarked) [Example 30]	1	1	–	–
–	CCC(COCCC1CCN(C(=O)NS(=O)(=O)c2ccc(C)cc2)CC1)n1cnc2c(N)nc3ccccc3c21 (centres unmarked) [Example 33]	1	10	–	–
–	CCCCc1nc2c(N)nc3ccccc3c2n1CCOCCNC(=O)Nc1ccccc1 [Example 10]	0.0001	10	–	–
–	CCCCc1nc2c(N)nc3ccccc3c2n1CCOCCNC(=O)Nc1cccc(C#N)c1 [Example 13]	0.0001	1	–	–
–	COc1ccc(NC(=O)NCCOCCn2cnc3c(N)nc4ccccc4c32)c(OC)c1 [Example 43]	10	10	–	–
–	CCCCc1nc2c(N)nc3ccccc3c2n1CCOCCNC(=O)NS(=O)(=O)c1ccc(Cl)cc1 [Example 21]	1	10	–	–
207 to 209	Cc1nc2c(N)nc3ccccc3c2n1CCOCCNC(=O)NC1CCCCC1 [Example 49, N-{2-[2-(4-amino-2-methyl-1H-imidazo[4,5-c]quinolin-1-yl)ethoxy]ethyl}-N′-cyclohexylurea]	–	–	–	–
–	CCCCc1nc2c(N)nc3ccccc3c2n1CCOCCNC(=O)Nc1ccc(N(C)C)cc1 [Example 16]	0.0001	10	–	–
–	CCCCc1nc2c(N)nc3ccccc3c2n1CCOCCNC(=O)N1CCOCC1 [Example 11]	0.0001	0.1	–	–
–	CCC(COCCC1CCN(C(=S)Nc2ccccc2)CC1)n1cnc2c(N)nc3ccccc3c21 (centres unmarked) [Example 36]	0.1	–	*	–
–	CCC(COCCC1CCN(C(=O)Nc2ccc(OC)cc2OC)CC1)n1cnc2c(N)nc3ccccc3c21 (centres unmarked) [Example 32]	0.1	1	–	–
–	N#Cc1cccc(NC(=O)NCCOCCn2cnc3c(N)nc4ccccc4c32)c1 [Example 40]	10	10	–	–
–	CCCCc1nc2c(N)nc3ccccc3c2n1CCOCCNC(=O)NC(C)(C)C [Example 8]	0.0001	10	–	–
–	Nc1nc2ccccc2c2c1ncn2CCOCCNC(=O)Nc1ccccc1 [Example 38]	10	10	–	–
–	CCC(COCCC1CCN(C(=O)N2CCOCC2)CC1)n1cnc2c(N)nc3ccccc3c21 (centres unmarked) [Example 25]	0.1	1	–	–
183 to 186	CCOCc1nc2c(N)nc3ccccc3c2n1CCOCCNC(=O)Nc1ccccc1 [Example 53, N-(2-{2-[4-amino-2-(ethoxymethyl)-1H-imidazo[4,5-c]quinolin-1-yl]ethoxy}ethyl)-N′-phenylurea]	–	–	–	–
–	CCC(COCCC1CCN(C(=S)NC(=O)c2ccco2)CC1)n1cnc2c(N)nc3ccccc3c21 (centres unmarked) [Example 35]	1	1	–	–
178 to 181	CCOCc1nc2c(N)nc3ccccc3c2n1CCOCCNC(=O)N1CCOCC1 [Example 55, N-(2-{2-[4-amino-2-(ethoxymethyl)-1H-imidazo[4,5-c]quinolin-1-yl]ethoxy}ethyl)morpholine-4-carboxamide]	–	–	–	–
193 to 195	Cc1nc2c(N)nc3ccccc3c2n1CCOCCNC(=O)Nc1ccccc1 [Example 48, N-{2-[2-(4-amino-2-methyl-1H-imidazo[4,5-c]quinolin-1-yl)ethoxy]ethyl}-N′-phenylurea]	–	–	–	–
–	CCC(COCCC1CCN(C(=O)NS(=O)(=O)c2ccc(Cl)cc2)CC1)n1cnc2c(N)nc3ccccc3c21 (centres unmarked) [Example 34]	1	10	–	–
–	CCCCc1nc2c(N)nc3ccccc3c2n1CCOCCNC(=O)N[C@H]1C[C@@H]1c1ccccc1 [Example 15]	0.0001	0.1	–	–

melting point [°C]	Structure (SMILES)	minimal effective concentration [1] [µM]	minimal effective concentration [2] [µM]	Lowest Effective Concentration (μM) Tumor Necrosis Factor [2]	Lowest Effective Concentration (μM) Interferon [1]
–	CCC(COCCC1CCN(C(=O)Nc2cccc(SC)c2)CC1)n1cnc2c(N)nc3ccccc3c21 (centres unmarked) [Example 31]	1	10	–	–
–	CCCCNC(=O)N1CCC(CCOCC(CC)n2cnc3c(N)nc4ccccc4c32)CC1 (centres unmarked) [Example 23]	1	1	–	–
–	CCC(COCCC1CCN(C(=O)N[C@@H]2C[C@H]2c2ccccc2)CC1)n1cnc2c(N)nc3ccccc3c21 (some centres unmarked) [Example 29]	0.1	1	–	–
–	Nc1nc2ccccc2c2c1ncn2CCOCCNC(=O)N[C@@H]1C[C@H]1c1ccccc1 [Example 42]	10	–	*	–
–	CCC(COCCC1CCN(C(=O)NC2CCCCC2)CC1)n1cnc2c(N)nc3ccccc3c21 (centres unmarked) [Example 26]	0.1	1	–	–
–	CCC(COCCC1CCN(C(=O)NC(C)C)CC1)n1cnc2c(N)nc3ccccc3c21 (centres unmarked) [Example 22]	0.1	1	–	–
–	CCCCc1nc2c(N)nc3ccccc3c2n1CCOCCNC(=O)NC(C)C [Example 7]	0.0001	10	–	–
–	Nc1nc2ccccc2c2c1ncn2CCOCCNC(=O)NS(=O)(=O)c1ccccc1 [Example 44]	–	–	*	*
–	COc1cccc(NC(=O)NCCOCCn2cnc3c(N)nc4ccccc4c32)c1 [Example 41]	10	10	–	–
–	CC(C)(C)NC(=O)NCCOCCn1cnc2c(N)nc3ccccc3c21 [Example 37]	10	10	–	–
–	CCCCc1nc2c(N)nc3ccccc3c2n1CCOCCNC(=O)NS(=O)(=O)c1ccc(C)cc1 [Example 20]	0.01	10	–	–
–	CCCCc1nc2c(N)nc3ccccc3c2n1CCOCCNC(=O)Nc1cccc(OC)c1 [Example 14]	0.0001	10	–	–
–	Nc1nc2ccccc2c2c1ncn2CCOCCNC(=O)NC1CCCCC1 [Example 39]	10	10	–	–
–	CCCCc1nc2c(N)nc3ccccc3c2n1CCOCCNC(=O)Nc1cccc(SC)c1 [Example 17]	–	10	–	*
–	CCCCc1nc2c(N)nc3ccccc3c2n1CCOCCNC(=O)NS(=O)(=O)c1ccccc1 [Example 19]	0.1	10	–	–
–	CCC(COCCC1CCN(C(=O)Nc2cccc(C#N)c2)CC1)n1cnc2c(N)nc3ccccc3c21 (centres unmarked) [Example 27]	0.1	1	–	–
–	CCCCc1nc2c(N)nc3ccccc3c2n1CCOCCNC(=O)NC1CCCCC1 [Example 12]	0.0001	1	–	–
–	CCCCc1nc2c(N)nc3ccccc3c2n1CCOCCNC(=O)Nc1ccc(OC)cc1OC [Example 18]	1	–	*	–
–	CCC(COCCC1CCN(C(=O)Nc2ccccc2)CC1)n1cnc2c(N)nc3ccccc3c21 (centres unmarked) [Example 24]	0.1	1	–	–
–	CCC(COCCC1CCN(C(=O)Nc2cccc(OC)c2)CC1)n1cnc2c(N)nc3ccccc3c21 (centres unmarked) [Example 28]	0.1	1	–	–
–	CCCCNC(=O)NCCOCCn1c(CCCC)nc2c(N)nc3ccccc3c21 [Example 9]	0.0001	1	–	–
